According to patent publication US20060178352A1, “Use of androgens to reduce the likelihood of acquiring or to treat skin aging” (Endorecherche, Inc., priority 2004, published 2006):
Where two headings read alike, the source gives them in different places.

How the values were obtained:
mouse dorsal skin = format: in vivo; conditions: for Effect on hypodermal thickness: GDX animals of both sexes, p<0.01; for Dermis % (proportion of skin layer) / Epidermis % (proportion of skin layer) / Hypodermis % (proportion of skin layer) / Dermis T (thickness) / Epidermis T (thickness) / Hypodermis T (thickness): 3 weeks treatment; for Dermis T (thickness) / Epidermis T (thickness) / Hypodermis T (thickness): mean ± SEM
Procedure: (§1) Fifty six adult male and female C57BL6 mice 13-15 weeks of age were obtained from Harlan Laboratory (Indiana, USA). […] Animals of intact and GDX control groups were treated with the vehicle alone during the same period. Six hours after the last treatment, all animals were sacrificed.
Since DHT is known to be poorly active by the oral route, it was injected subcutaneously. To determine the DHT dose, a preliminary dose-range study was performed (see supplementary online material, online Table S1).
After shaving the long hair, the dorsal skin was excised, flattened and immediately immersed in 10% buffered formalin. A sample was embedded in paraffin blocks from which 4 μm sections were cut and routinely stained.
Under the light microscope, measurements were performed using the IMAGE-PRO PLUS (Media Cybernetics, USA). Twenty-five readings were scored from each skin layer of each animal. The epidermal thickness was measured from stratum basale to stratum granulosum (excluding stratum corneum), whereas the dermal thickness was the distance between the epidermis and the hypodermis. Finally, the hypodermal thickness was measured as the distance between the dermis and the panniculus carnosus.

[1] = men and women 60-79 years, oral 50 mg once daily, cited from earlier work
[2] = aged individuals, particularly women >70 years; cited from earlier work
androgen receptor (AR) = assay: Immunohistochemistry of androgen receptor in epidermis of mouse dorsal skin; format: in vivo; conditions: GDX males and females, 3 weeks treatment
Procedure: as §1

[3] = GDX females, versus GDX control

| SMILES | Effect on hypodermal thickness (mouse dorsal skin) | Dermis % (proportion of skin layer) (mouse dorsal skin; GDX female mice) | Epidermis % (proportion of skin layer) (mouse dorsal skin; GDX female mice) | Hypodermis % (proportion of skin layer) (mouse dorsal skin; GDX female mice) | Dermis T (thickness) (mouse dorsal skin; GDX female mice) | Epidermis T (thickness) (mouse dorsal skin; GDX female mice) | Hypodermis T (thickness) (mouse dorsal skin; GDX female mice) | Effect on dermal thickness (in words) (mouse dorsal skin; GDX females) | Increase in dermal thickness (mouse dorsal skin; [3]) | Dermis % (proportion of skin layer) (mouse dorsal skin; GDX male mice) | Epidermis % (proportion of skin layer) (mouse dorsal skin; GDX male mice) | Hypodermis % (proportion of skin layer) (mouse dorsal skin; GDX male mice) | Dermis T (thickness) (mouse dorsal skin; GDX male mice) | Epidermis T (thickness) (mouse dorsal skin; GDX male mice) | Hypodermis T (thickness) (mouse dorsal skin; GDX male mice) | also measured |
| --- | --- | --- | --- | --- | --- | --- | --- | --- | --- | --- | --- | --- | --- | --- | --- | --- |
| C[C@]12CCC(=O)C[C@@H]1CC[C@@H]1[C@@H]2CC[C@]2(C)[C@@H](O)CC[C@@H]12 [DHT, 5α-androstane-17β-ol-3-one] | markedly decreased | 79.5% | 2.5% | 18% | 307 ± 13.3^++ μm | 9.6 ± 0.2 μm | 70 ± 4.6^++ μm | increase | 47% | 93% | 2.1% | 4.9% | 451 ± 24.1 μm | 10 ± 0.2 μm | 24 ± 1.9 μm |  |
| C[C@]12CC[C@H](O)CC1=CC[C@@H]1[C@@H]2CC[C@]2(C)C(=O)CC[C@@H]12 [DHEA, dehydroepiandrosterone] | markedly decreased | 75.8% | 3.2% | 21% | 249 ± 11.8^+ μm | 10.5 ± 0.3^+ μm | 69 ± 4.5^++ μm | increase | 19% | 92.8% | 1.7% | 5.5% | 486 ± 28.7 μm | 8.9 ± 0.3 μm | 29 ± 6.2 μm | Facial skin pigmentation (yellowness) ([1]; 1 year): significantly decreased; Other components of skin colour (lightness and redness) ([1]; 1 year): remained stable; Skin surface hydratation ([1]; after 12 months): significantly increased; Increase in epidermal thickness (mouse dorsal skin; GDX females, versus GDX control, p<0.05): 13%; Sebum production [2]: increase |
| C[C@]12CC[C@@H]3c4ccc(O)cc4CC[C@H]3[C@@H]1CC[C@@H]2O [E2] | markedly decreased |  |  |  |  |  |  |  |  |  |  |  |  |  |  | AR labeling / expression in epidermal nuclei (androgen receptor (AR)): weak AR labeling |
